Measured values: paper PMC12728982, “Multichiral Half-Sandwich Ru(II) and Os(II) Anticancer Complexes Containing a Glutathione Synthesis Inhibitor” (Organometallics, 2025)
Entries after “also recorded” stand apart in the source; their conditions may differ.

Tests used:
[1] = system: HeLa cervical adenocarcinoma cells; assay: Antiproliferative activity, SRB assay; type: cell-based, human
Description: (§1) The antiproliferative activity against human A549 lung, IGROV-1 ovarian, and HeLa cervical cancer cell lines and MRC5 normal lung fibroblasts was determined by the sulforhodamine B (SRB) assay. […] IGROV-1 is known to be cisplatin-sensitive and subject to hypermutation.
(§2) 2.8 Mammalian cell culture
(§3) The human ovarian cancer cell line, IGROV-1; the human cervical cancer cell line, HeLa; the human […]; and the human non-cancerous lung fibroblast cell line, MRC5 were cultured in DMEM supplemented with 10% FBS and 100 units/mL of penicillin and 100 µg/mL of streptomycin (1x pen/strep). All cell lines were incubated at 310 K with 5% CO2 and 95% humidity for routine maintenance and during drug treatment.
(§4) 2.9 Sulforhodamine (SRB) cytotoxicity assay
(§5) Cells were seeded at 5 × 10^3 cells per well and incubated at 310 K for 48 h. Stock solutions (200 µM) of the complexes were prepared by dissolving the compound in 5% (v/v) DMSO followed by dilution with DMEM and serial dilutions with DMEM were prepared (0.1 µM-200 µM). The cells were exposed to the drug for 24 h. The drug was then removed, and cells were allowed to recover for 72 h, in drug-free media. Cell viability was then determined by the SRB colorimetric assay. The solubilised dye absorbance was analysed on a microplate reader (Thermo Scientific Multiskan FC with Scanit software 4.1) at 470 nm. Data were normalized using Microsoft Excel, and dose-response curves fitted using Origin 2016. The IC50 values

[2] = system: IGROV-1 human ovarian cancer cells; assay: Apoptosis assay, annexin V and PI, flow cytometry; type: cell-based; details: IGROV-1, 50 or 100 μM, 24 h
Description: Apoptosis assays using annexin V and PI as markers were carried out to investigate possible modes of cell death. For the clinical drug cisplatin, apoptosis is the major mode of cell death. […] Other mechanisms of cell death such as ferroptosis could be investigated in future work. […]
was aspirated, cells washed in ice-cold PBS and then stained with 0.2 mg/mL RNase, 0.05 mg/mL propidium iodide (PI) in PBS for 25 min in the dark and on ice. Excess dye was removed, and cells were re-suspended in PBS. Samples were analysed by flow cytometry using the BD FACSMelody™ Cell Sorter (R653880001) and data analysis on FlowJo™ v10 Software (BD Life […]
IGROV-1 cells (1 x 106) were seeded in a 6-well plate and incubated for 24 h at 310 K. Stock solutions (200 µM) of the complexes were prepared by dissolving the compound in 5% (v/v) DMSO followed by dilution with DMEM and then diluted to desired concentrations. All complexes (50 µM and 100 µM) were added to the wells and incubated for 24 h. […] Samples were analysed by flow cytometry using the BD FACSMelody™ Cell Sorter (R653880001) and data analysis on FlowJo™ v10 Software (BD Life Sciences).9 […]
Percentage of IGROV -1 cancer cells in non -apoptotic, apoptotic (early and late) or necrotic phases determined by flow cytometry after 24 h treatment with Os/Ru L -BSO and glycine complexes. […] Standard deviations calculated for N=3. […]

[3] = system: A549 lung carcinoma cells; assay: Antiproliferative activity, SRB assay; type: cell-based, human
Description: as §1, §2, §3, §4
as §5, with “µM-200” for “µM-200 µM).”

[4] = system: IGROV-1 ovarian carcinoma cells; assay: Antiproliferative activity, SRB assay; type: cell-based, human
Description: as §1, §2, §3, §4
as §5, with “µM-200” for “µM-200 µM).”

[5] = system: MRC-5 normal lung fibroblasts; assay: Antiproliferative activity, SRB assay; type: cell-based, human
Description: as §1, §2, §3, §4
as §5, with “µM-200” for “µM-200 µM).”

- IC50 ([1]; SRB assay, 24 h treatment, 72 h recovery): > 200 µM
- IC50 ([3]; A549, SRB assay, 24 h treatment, 72 h recovery): > 200 µM
- IC50 ([4]; IGROV-1, SRB assay, 24 h treatment, 72 h recovery): 14.6 ± 0.5 µM
Substance: [(p-cymene)Os(L-BSO)Cl] [Os-LBSO]
- Activity toward HeLa cervical cancer cells ([1]; SRB): inactive
- Apoptosis / mode of cell death vs untreated cells [2]: no significant differences
- Activity toward lung cancer cells ([3]; A549, SRB): inactive
- Activity against IGROV-1 ([4]; IGROV-1, SRB): active
- Activity toward normal lung cells ([5]; MRC-5, SRB): highly active; also recorded: some activity
- IC50 ([5]; MRC-5, SRB assay, 24 h treatment, 72 h recovery): 11.8 ± 0.6 µM
